Assay results: the supplement of paper PMC10307832

Compound: CCN(CC)CCNC(=O)c1c(C)[nH]c(/C=C2\C(=O)Nc3ccc(F)cc32)c1C [Sunitinib] + CC(=O)Nc1cccc(-n2c(=O)n(C3CC3)c(=O)c3c(Nc4ccc(I)cc4F)n(C)c(=O)c(C)c32)c1 [Trametinib] (partner 0.02 µM)
Experiment: relative viability (nuclei count vs DMSO), 5 days (fraction); higher = more cells survive
Procedure, shortened: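 Lung cancer cell lines in 1536-well plates got either a single drug or a fixed anchor-drug dose together with five library-drug doses (not always all listed) in √10 steps, by pin tool, on the day after seeding. Nuclei were counted after 5 days, and relative viability is the treated-to-vehicle ratio of nuclei counts. Values are medians of duplicate plates.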

| Cell Line | relative viability (first compound 0.02 µM) | relative viability (first compound 0.06325 µM) | relative viability (first compound 0.2 µM) | relative viability (first compound 0.6325 µM) | relative viability (first compound 2 µM) |
| --- | --- | --- | --- | --- | --- |
| 201T | 0.704 | 0.75 | 0.739 | 0.717 | 0.697 |
| A-427 | 0.759 | 0.758 | 0.893 | 0.821 | 0.728 |
| BEN | 0.9 |  | 1.06 | 1.08 | 1.05 |
| CAL-12T | 0.322 | 0.356 | 0.4 | 0.407 | 0.268 |
| COR-L23 | 0.466 | 0.57 | 0.548 | 0.656 | 0.547 |
| COR-L 105 | 0.45 | 0.465 | 0.452 | 0.469 | 0.44 |
| ChaGo-K-1 | 0.814 | 0.919 | 0.977 | 0.889 | 0.888 |
| EKVX | 0.314 | 0.357 | 0.412 | 0.345 | 0.298 |
| EMC-BAC-2 | 0.868 | 0.932 | 0.966 | 0.99 | 1.12 |
| EPLC-272H | 0.253 | 0.271 | 0.287 | 0.283 | 0.288 |
| H3255 | 0.611 | 0.658 | 0.652 | 0.614 | 0.597 |
| HARA | 0.599 | 0.976 | 0.841 | 0.943 | 0.707 |
| HCC-15 | 0.36 | 0.316 | 0.305 | 0.352 | 0.312 |
| HCC-44 | 1.06 | 1.14 | 1.1 | 1.08 |  |
| HCC-78 | 0.76 | 0.812 | 0.985 | 0.737 | 0.701 |
| HCC-366 | 0.313 | 0.407 | 0.382 | 0.389 | 0.339 |
| HCC-827 | 0.555 | 0.61 | 0.558 | 0.613 | 0.618 |
| HOP-62 | 0.376 | 0.364 | 0.389 | 0.374 | 0.379 |
| LC-2-ad | 0.894 | 0.951 | 0.896 | 0.825 | 0.722 |
| LCLC-97TM1 | 0.197 | 0.215 | 0.206 | 0.207 | 0.205 |
| LCLC-103H | 0.612 | 0.692 | 0.629 | 0.728 | 0.719 |
| LK-2 | 0.498 | 0.809 | 0.858 | 0.747 | 0.964 |
| LOU-NH91 | 0.791 | 0.811 | 0.844 | 0.823 | 0.787 |
| LU99A | 0.477 | 0.562 | 0.554 | 0.552 | 0.424 |

| Cell Line | relative viability (first compound 0.02 µM) | relative viability (first compound 0.06325 µM) | relative viability (first compound 0.2 µM) | relative viability (first compound 0.6325 µM) | relative viability (first compound 2 µM) |
| --- | --- | --- | --- | --- | --- |
| LXF-289 | 0.621 | 0.714 | 0.679 | 0.728 | 0.689 |
| NCI-H23 | 0.345 | 0.348 | 0.334 | 0.391 | 0.351 |
| NCI-H322M | 0.536 | 0.516 | 0.554 | 0.477 | 0.525 |
| NCI-H358 | 0.137 | 0.143 | 0.138 | 0.127 | 0.14 |
| NCI-H441 | 0.432 | 0.581 | 0.518 | 0.524 | 0.409 |
| NCI-H460 | 0.104 | 0.185 | 0.226 | 0.287 | 0.191 |
| NCI-H520 | 0.657 | 0.813 | 0.727 | 0.772 | 0.601 |
| NCI-H596 | 0.762 | 0.86 | 0.723 |  | 1.02 |
| NCI-H647 | 0.367 | 0.479 | 0.547 | 0.426 | 0.408 |
| NCI-H650 | 0.917 | 1.04 | 1.16 | 0.988 | 1.01 |
| NCI-H661 | 0.513 | 0.597 | 0.703 | 0.63 | 0.649 |
| NCI-H727 | 0.409 | 0.412 | 0.412 | 0.396 | 0.367 |
| NCI-H838 | 0.473 | 0.558 | 0.647 | 0.534 | 0.489 |
| NCI-H1355 | 0.44 | 0.438 | 0.567 | 0.437 | 0.376 |
| NCI-H1395 | 0.92 |  | 1.22 | 0.988 | 0.99 |
| NCI-H1437 | 0.478 | 0.539 | 0.611 | 0.607 | 0.537 |
| NCI-H1648 | 0.502 | 0.529 | 0.524 | 0.445 | 0.499 |
| NCI-H1650 | 0.509 | 0.63 | 0.874 | 0.621 | 0.552 |
| NCI-H1651 | 0.801 |  | 0.901 |  | 0.847 |
| NCI-H1666 | 0.843 | 0.888 | 1.09 | 0.879 | 0.882 |
| NCI-H1734 | 0.595 | 0.665 | 0.747 | 0.653 | 0.644 |
| NCI-H1755 | 0.763 | 0.768 | 0.92 | 0.736 | 0.767 |
| NCI-H1792 | 0.463 | 0.417 | 0.533 | 0.442 | 0.377 |
| NCI-H1793 |  | 0.364 | 0.377 | 0.514 | 0.331 |

| Cell Line | relative viability (first compound 0.02 µM) | relative viability (first compound 0.06325 µM) | relative viability (first compound 0.2 µM) | relative viability (first compound 0.6325 µM) | relative viability (first compound 2 µM) |
| --- | --- | --- | --- | --- | --- |
| NCI-H1915 | 0.291 | 0.291 | 0.304 | 0.298 | 0.261 |
| NCI-H1944 | 0.401 | 0.423 | 0.457 | 0.437 | 0.43 |
| NCI-H1975 | 0.322 | 0.361 | 0.33 | 0.421 | 0.316 |
| NCI-H1993 | 0.51 | 0.53 | 0.448 | 0.424 | 0.651 |
| NCI-H2009 | 0.242 | 0.332 | 0.274 | 0.25 | 0.181 |
| NCI-H2023 | 0.425 | 0.615 | 0.614 | 0.454 | 0.444 |
| NCI-H2085 | 0.5 | 0.515 | 0.515 | 0.634 | 0.71 |
| NCI-H2087 | 0.2 | 0.234 | 0.266 | 0.211 | 0.237 |
| NCI-H2126 | 0.545 | 0.59 | 0.612 | 0.573 | 0.605 |
| NCI-H2170 | 0.905 | 0.915 | 1.05 | 0.927 | 0.921 |
| NCI-H2228 | 0.574 | 0.568 | 0.593 | 0.558 | 0.285 |
| NCI-H2342 | 0.786 | 0.877 | 0.915 | 0.767 | 0.813 |
| NCI-H2347 | 0.293 | 0.251 | 0.24 | 0.314 | 0.296 |
| NCI-H2405 | 0.59 | 0.582 | 0.662 | 0.672 | 0.628 |
| NCI-H3122 | 0.289 | 0.287 | 0.231 | 0.233 | 0.299 |
| PC-3 [JPC-3] | 0.754 | 0.715 | 0.667 | 0.772 | 0.59 |
| PC-14 | 0.665 | 0.743 | 0.833 | 0.771 | 0.579 |
| RERF-LC-KJ | 0.903 | 0.854 | 0.953 | 0.87 | 0.86 |
| SK-LU-1 | 0.432 | 0.518 | 0.545 | 0.537 | 0.525 |
| SK-MES-1 | 0.526 | 0.528 | 0.555 | 0.575 | 0.459 |
| SW 1573 | 0.522 | 0.626 | 0.515 | 0.729 | 0.582 |
| UMC-11 | 0.709 | 0.793 | 0.811 | 0.787 | 0.783 |
